Data from PMC8956739, “A synthetic lipopeptide targeting top-priority multidrug-resistant Gram-negative pathogens” (Nature Communications, 2022).
Values after ≈ are worked out from the molar mass of the structure shown. Values joined by “and” are separate entries in the source; they are usually repeats but may differ in a detail not shown here. Equal values may be shown once. Residues, ends and D or L forms follow the SMILES beside them.

Tests used:
[1] = test system: Swiss mice, kidney; experiment: Nephrotoxicity in mice (kidney histopathology); format: in vivo, mouse; details: for Kidney histopathology (SQS Score): 72 mg/kg/d subcutaneously in six divided doses every 2 h, n = 3; for Kidney histopathology, mice with the SQS score: mouse, in vivo
Method in brief: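 Female Swiss mice (7-week-old, 22–28 g) received lipopeptides in saline either s.c. at 12 mg/kg ×6 every 2 h (total 72 mg/kg, n = 3) or i.p. at 20 or 25 mg/kg ×6 every 2 h (total 120 mg/kg, n = 6; 150 mg/kg, n = 3). Right kidney collected 20 h after last dose, fixed in 10% buffered formalin (pH 7.4), histology scored blinded.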

[2] = test system: K. pneumoniae FADDI-KP065; format: cell-based, Klebsiella pneumoniae; details: FADDI-KP065
Method in brief: (§1)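 Broth microdilution, CaMHB; MIC read as the antibacterial endpoint against ATCC reference strains and clinical isolates.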

[3] = test system: K. pneumoniae FADDI-KP032; format: cell-based, Klebsiella pneumoniae; details: FADDI-KP032
Method in brief: as §1

[4] = test system: P. aeruginosa ATCC 27853; experiment: Neutropenic mouse bloodstream infection model; format: in vivo; details: single IV dose 4 mg/kg; for Log10 CFU/mL blood at 4 h, Mean / Δlog10 CFU/mL blood (mean) / Log10 CFU/mL blood at 4 h, single mouse: 4 h; for Δlog10 CFU/mL blood (mean): treated minus control, mean of replicates; for Δlog10 CFU/mL blood (mean) / Log10 CFU/mL blood at 4 h, single mouse / Delta Log10 CFU/mL blood at 4 h, single mouse: 4 mg/kg; for Delta Log10 CFU/mL blood at 4 h, single mouse: treated mouse minus mean of vehicle mice
Method in brief: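 Female Swiss mice made neutropenic with cyclophosphamide (150 mg/kg day −4, 100 mg/kg day −1), infected IV with 50 µL of 4 × 10^8 CFU/mL. Lipopeptide 4 mg/kg (free base) IV at 2 h post-inoculation, n = 3. Efficacy = Δlog10 CFU/mL blood versus saline at 4 h post-dose.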

[5] = test system: A. baumannii ATCC 19606; format: cell-based, Acinetobacter baumannii; details: ATCC 19606
Method in brief: (§2)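 Susceptibility: microdilution MIC in CaMHB.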

[6] = test system: A. baumannii FADDI-AB034; format: cell-based, Acinetobacter baumannii; details: FADDI-AB034
Method in brief: as §1

[7] = test system: A. baumannii FADDI-AB030; format: cell-based, Acinetobacter baumannii; details: FADDI-AB030
Method in brief: as §1

[8] = test system: P. aeruginosa FADDI-PA025; format: cell-based, Pseudomonas aeruginosa; details: FADDI-PA025
Method in brief: as §1

[9] = test system: P. aeruginosa FADDI-PA038; format: cell-based, Pseudomonas aeruginosa; details: FADDI-PA038
Method in brief: as §1

[10] = test system: P. aeruginosa ATCC 27853; format: cell-based, Pseudomonas aeruginosa; details: ATCC 27853
Method in brief: as §2

[11] = test system: Swiss mice; experiment: Acute toxicity in mice (maximum tolerated dose, IV bolus); format: in vivo, mouse; details: replicates 1-4
Experimental: (§3) Lipopeptide solutions were prepared in 0.9% saline and stored at 4 °C before use. Swiss mice (female, 7-week-old, 22–28 g) were used in the study. A mouse was administered an intravenous bolus of the lipopeptide (mg/kg free base) through a lateral tail vein (≤0.1 mL). After the injection, the mouse was released back into the cage and monitored for clinical signs of toxicity from 0 to 24 h after injection as follows: every 10 min in the first 2 h, every half hour from 2 to 4 h, every hour from 4 to 12 h, and every 2 h from 12 to 24 h.

[12] = as above; format: in vivo, mouse; details: mouse, in vivo, iv, single IV bolus dose, replicates 1-4; read-out: MTD, single replicate
Experimental: as §3

[13] = test system: human subjects; details: in vivo; cited from earlier work

CC[C@@H]1NC(=O)[C@@H](CC(C)C)NC(=O)[C@H](CCN)NC(=O)[C@@H](NC(=O)[C@H](CN)NC(=O)[C@@H](NC(=O)[C@H](CCN)NC(=O)c2cc(Cl)cc(Cl)c2)[C@@H](C)O)CCNC(=O)[C@H]([C@@H](C)O)NC(=O)[C@H](CCN)NC(=O)[C@H](CCN)NC1=O [Lipopeptide F381] (HELM PEPTIDE1{[O=C(c1cc(Cl)cc(Cl)c1)[*:2]].[Dab].T.[NC[C@H](N[*:1])C(=O)[*:2]].[Dab].[Dab].[dL].[Abu].[Dab].[Dab].T}$PEPTIDE1,PEPTIDE1,5:R3-11:R2$$$V2.0)
Kidney histopathology (SQS Score) [1]: +1 (SQS + 1 = mild damage (overall score, 1 to <15))
Kidney histopathology, mice with the SQS score [1]: 1/3
MIC K. pneumoniae FADDI-KP065 [2]: 0.5 µg/mL (≈ 0.431 µM)
MIC K. pneumoniae FADDI-KP032 [3]: <0.125 µg/mL
Log10 CFU/mL blood at 4 h, Mean [4]: 4.49 Log10 CFU/mL blood
Δlog10 CFU/mL blood (mean) [4]: −3.45 log10 CFU/mL blood
Log10 CFU/mL blood at 4 h, single mouse [4]: 4.47 Log10 CFU/mL blood and 4.87 Log10 CFU/mL blood and 4.12 Log10 CFU/mL blood
Delta Log10 CFU/mL blood at 4 h, single mouse [4]: -3.47 Log10 CFU/mL blood and -3.07 Log10 CFU/mL blood and -3.82 Log10 CFU/mL blood
MIC A. baumannii ATCC 19606 [5]: 0.5 µg/mL (≈ 0.431 µM)
MIC A. baumannii FADDI-AB034 [6]: 0.25 µg/mL (≈ 0.215 µM)
MIC A. baumannii FADDI-AB030 [7]: 0.25 µg/mL (≈ 0.215 µM)
MIC P. aeruginosa FADDI-PA025 [8]: 0.5 µg/mL (≈ 0.431 µM)
MIC P. aeruginosa FADDI-PA038 [9]: 1 µg/mL (≈ 0.862 µM)
MIC P. aeruginosa ATCC 27853 [10]: 0.25 µg/mL (≈ 0.215 µM)
MIC, No Survanta [10]: 0.5 µg/mL (≈ 0.431 µM)
MTD, single replicate [11]: 4.7 mg/kg and 4 mg/kg
MTD [12]: 5 mg/kg

CC[C@@H]1NC(=O)[C@@H](CC(C)C)NC(=O)[C@H](CCN)NC(=O)[C@@H](NC(=O)[C@H](CN)NC(=O)[C@@H](NC(=O)[C@H](CCN)NC(=O)c2ccc(-c3ccccc3)cc2)[C@@H](C)O)CCNC(=O)[C@H]([C@@H](C)O)NC(=O)[C@H](CCN)NC(=O)[C@H](CCN)NC1=O [Lipopeptide F477] (HELM PEPTIDE1{[O=C(c1ccc(-c2ccccc2)cc1)[*:2]].[Dab].T.[NC[C@H](N[*:1])C(=O)[*:2]].[Dab].[Dab].[dL].[Abu].[Dab].[Dab].T}$PEPTIDE1,PEPTIDE1,5:R3-11:R2$$$V2.0)
Kidney histopathology (SQS Score) [1]: +1 (SQS + 1 = mild damage (overall score, 1 to <15))
Kidney histopathology, mice with the SQS score [1]: 1/3
MIC K. pneumoniae FADDI-KP065 [2]: 0.25 µg/mL (≈ 0.214 µM)
MIC K. pneumoniae FADDI-KP032 [3]: 0.25 µg/mL (≈ 0.214 µM)
Log10 CFU/mL blood at 4 h, Mean [4]: 3.39 Log10 CFU/mL blood
Δlog10 CFU/mL blood (mean) [4]: −3.89 log10 CFU/mL blood
Log10 CFU/mL blood at 4 h, single mouse [4]: 3.09 Log10 CFU/mL blood and 3.94 Log10 CFU/mL blood and 3.15 Log10 CFU/mL blood
Delta Log10 CFU/mL blood at 4 h, single mouse [4]: -4.19 Log10 CFU/mL blood and -3.34 Log10 CFU/mL blood and -4.13 Log10 CFU/mL blood
MIC A. baumannii ATCC 19606 [5]: 1 µg/mL (≈ 0.857 µM)
MIC A. baumannii FADDI-AB034 [6]: 0.25 µg/mL (≈ 0.214 µM)
MIC A. baumannii FADDI-AB030 [7]: 0.5 µg/mL (≈ 0.428 µM)
MIC P. aeruginosa FADDI-PA025 [8]: 1 µg/mL (≈ 0.857 µM)
MIC P. aeruginosa FADDI-PA038 [9]: 1 µg/mL (≈ 0.857 µM)
MIC P. aeruginosa ATCC 27853 [10]: 1 µg/mL (≈ 0.857 µM)
MIC, No Survanta [10]: 1 µg/mL (≈ 0.857 µM)
MTD, single replicate [11]: 10.1 mg/kg and 11.1 mg/kg
MTD [12]: 10 mg/kg

SPR206
single dose at which neurotoxicity was observed [13]: exceeding 200 mg
